Data: ChEMBL document CHEMBL5728971, “Small molecule inhibitors of lactate dehydrogenase and methods of use thereof” (2022)

Test: Biochemical Assay: Test compounds were placed in a Greiner Bio-One (Monroe, N.C.) 1536-well black solid bottom assay plate. 200 millimolar (mM) Tris HCl, pH 7.4, 100 micromolar (μM) EDTA and 0.01% TWEEN-20™, final concentration, was used as the assay buffer. The LDHA reagent was 2 nanomolar (nM) Human LDHA (Meridian Life Science, Inc., Memphis, Tenn.), final concentration, in assay buffer.

Row | IC50 | Compound
1 | > 57000 nM | COc1ccc(-c2cc(O)n(-c3nc(C(=O)O)cs3)n2)cc1
2 | > 57000 nM | O=C(O)c1csc(-n2nc(-c3ccc(F)cc3)cc2O)n1
3 | < 100 nM | NS(=O)(=O)c1ccc(Cc2c(-c3ccc(F)c(C#CCC4CC4)c3)nn(-c3nc(C(=O)O)cs3)c2CC2CC2)cc1F
4 | < 100 nM | N#CC#Cc1cc(-c2nn(-c3nc(C(=O)O)cs3)c(CC3CC3)c2Cc2ccc(S(N)(=O)=O)c(F)c2)ccc1F
5 | < 100 nM | NS(=O)(=O)c1ccc(Cc2c(-c3ccc(F)c(C#CC4CCOC4)c3)nn(-c3nc(C(=O)O)cs3)c2CC2CC2)cc1F (stereo not given)
6 | < 100 nM | Cc1ccc(C#Cc2cc(-c3nn(-c4nc(C(=O)O)cs4)c(CC4CC4)c3Cc3ccc(S(N)(=O)=O)c(F)c3)ccc2F)s1
7 | < 100 nM | NS(=O)(=O)c1ccc(Cc2c(-c3cccc(C#CC4CCCC4)c3)nn(-c3nc(C(=O)O)cs3)c2CC2CC2)cc1F
8 | < 100 nM | C/C=C/c1cc(-c2nn(-c3nc(C(=O)O)cs3)c(CC3CC3)c2Cc2ccc(S(N)(=O)=O)c(F)c2)ccc1F
9 | < 100 nM | CC(C)(C)/C=C/c1cc(-c2nn(-c3nc(C(=O)O)cs3)c(CC3CC3)c2Cc2ccc(S(N)(=O)=O)c(F)c2)ccc1F
10 | < 100 nM | Cc1ccc(C#Cc2cccc(-c3nn(-c4nc(C(=O)O)cs4)c(CC4CC4)c3Cc3ccc(S(N)(=O)=O)c(F)c3)c2)s1
11 | < 100 nM | NS(=O)(=O)c1ccc(Cc2c(-c3ccc(F)c(/C=C/C4CC4)c3)nn(-c3nc(C(=O)O)cs3)c2CC2CC2)cc1F
12 | < 100 nM | NS(=O)(=O)c1ccc(Cc2c(-c3ccc(F)c(C#CC(F)F)c3)nn(-c3nc(C(=O)O)cs3)c2CC2CC2)cc1F
13 | < 100 nM | NS(=O)(=O)c1ccc(Cc2c(-c3ccc(F)c(C#CCN4CCCC4)c3)nn(-c3nc(C(=O)O)cs3)c2CC2CC2)cc1F
14 | < 100 nM | C#Cc1cc(-c2nn(-c3nc(C(=O)O)cs3)c(CC3CC3)c2Cc2ccc(S(N)(=O)=O)c(F)c2)ccc1F
15 | < 100 nM | CC(C)C#Cc1cc(-c2nn(-c3nc(C(=O)O)cs3)c(CC3CC3)c2Cc2ccc(S(N)(=O)=O)c(F)c2)ccc1F
16 | < 100 nM | CC(F)C#Cc1cc(-c2nn(-c3nc(C(=O)O)cs3)c(CC3CC3)c2Cc2ccc(S(N)(=O)=O)c(F)c2)ccc1F (stereo not given)
17 | in the range around 550 nM | NS(=O)(=O)c1ccc(Cc2c(-c3ccc(F)c(C#CC(F)(F)F)c3)nn(-c3nc(C(=O)O)cs3)c2CC2CC2)cc1F
18 | < 100 nM | NS(=O)(=O)c1ccc(Cc2c(-c3ccc(F)c(/C=C/C4CCCC4)c3)nn(-c3nc(C(=O)O)cs3)c2CC2CC2)cc1F
19 | < 100 nM | COCC#Cc1cc(-c2nn(-c3nc(C(=O)O)cs3)c(CC3CC3)c2Cc2ccc(S(N)(=O)=O)c(F)c2)ccc1F
20 | < 100 nM | CC(C)(C)C#Cc1cc(-c2nn(-c3nc(C(=O)O)cs3)c(CC3CC3)c2Cc2ccc(S(N)(=O)=O)c(F)c2)ccc1F
21 | < 100 nM | NS(=O)(=O)c1ccc(Cc2c(-c3ccc(F)c(C#CC4CCC4)c3)nn(-c3nc(C(=O)O)cs3)c2CC2CC2)cc1F

Row | IC50 | Compound
22 | < 100 nM | NS(=O)(=O)c1ccc(Cc2c(-c3ccc(F)c(C#CCCO)c3)nn(-c3nc(C(=O)O)cs3)c2CC2CC2)cc1F
23 | < 100 nM | NS(=O)(=O)c1ccc(Cc2c(-c3ccc(F)c(C#CCC4CCCC4)c3)nn(-c3nc(C(=O)O)cs3)c2CC2CC2)cc1F
24 | < 100 nM | CC#Cc1cc(-c2nn(-c3nc(C(=O)O)cs3)c(CC3CC3)c2Cc2ccc(S(N)(=O)=O)c(F)c2)ccc1F
25 | < 100 nM | Cn1cncc1C#Cc1cc(-c2nn(-c3nc(C(=O)O)cs3)c(CC3CC3)c2Cc2ccc(S(N)(=O)=O)c(F)c2)ccc1F
26 | < 100 nM | NS(=O)(=O)c1ccc(Cc2c(-c3ccc(F)c(C#Cc4cccs4)c3)nn(-c3nc(C(=O)O)cs3)c2CC2CC2)cc1F
27 | < 100 nM | NS(=O)(=O)c1ccc(Cc2c(-c3cccc(N4CCC(F)(F)CC4)c3)nn(-c3nc(C(=O)O)cs3)c2CC2CC2)cc1F
28 | < 100 nM | NS(=O)(=O)c1ccc(Cc2c(-c3cccc(N4CCCC(C(F)(F)F)C4)c3)nn(-c3nc(C(=O)O)cs3)c2CC2CC2)cc1F (stereo not given)
29 | < 100 nM | NS(=O)(=O)c1ccc(Cc2c(-c3ccc(F)c(OCC4CC4(F)F)c3)nn(-c3nc(C(=O)O)cs3)c2CC2CC2)cc1F (stereo not given)
30 | in the range around 29000 nM | NS(=O)(=O)c1ccc(Cc2c(-c3cccc(N4CCC(F)(F)C4)c3)nn(-c3nc(C(=O)O)cs3)c2CC2CC2)cc1F
31 | < 100 nM | NS(=O)(=O)c1ccc(Cc2c(-c3cccc(N4CCCC(F)(F)C4)c3)nn(-c3nc(C(=O)O)cs3)c2CC2CC2)cc1F
32 | < 100 nM | NS(=O)(=O)c1ccc(Cc2c(-c3ccc(F)c(C#CC4(F)COC4)c3)nn(-c3nc(C(=O)O)cs3)c2CC2CC2)cc1F
33 | < 100 nM | NS(=O)(=O)c1ccc(Cc2c(-c3ccc(F)c(C#CC4(O)CCOC4)c3)nn(-c3nc(C(=O)O)cs3)c2CC2CC2)cc1F (stereo not given)
34 | in the range around 29000 nM | CCOC(=O)c1csc(-n2nc(-c3ccc(F)c(C#CC4CCCC4)c3)c(Cc3ccc(S(N)(=O)=O)cc3)c2CC2CC2)n1
35 | > 57000 nM | CCOC(=O)c1csc(-n2nc(-c3ccc(F)c(C#Cc4ccc(C)s4)c3)c(Cc3ccc(S(N)(=O)=O)c(F)c3)c2CC2CC2)n1
36 | < 100 nM | NS(=O)(=O)c1ccc(Cc2c(-c3ccc(F)c(-c4ccc(F)s4)c3)nn(-c3nc(C(=O)O)cs3)c2CC2CC2)cc1F
37 | in the range around 29000 nM | NS(=O)(=O)c1ccc(Cc2c(CC3CC3)nn(-c3nc(C(=O)O)cs3)c2-c2ccc(C(O)(C3CC3)C(F)(F)F)cc2)cc1F (stereo not given)
38 | < 100 nM | C=C(c1cc(-c2nn(-c3nc(C(=O)O)cs3)c(CC3CC3)c2Cc2ccc(S(N)(=O)=O)c(F)c2)ccc1F)C(F)(F)F
39 | > 57000 nM | CCOC(=O)c1csc(-n2nc(-c3ccc(F)c(C#CC4CCCC4)c3)c(Cc3cccc(S(N)(=O)=O)c3)c2CC2CC2)n1
40 | > 57000 nM | CCOC(=O)c1csc(-n2nc(-c3cccc(C#CC4CCCC4)c3)c(Cc3ccc(S(N)(=O)=O)c(F)c3)c2CC2CC2)n1
41 | < 100 nM | NS(=O)(=O)c1ccc(Cc2c(-c3cccc(C(O)(C4CC4)C(F)(F)F)c3)nn(-c3nc(C(=O)O)cs3)c2CC2CC2)cc1F (stereo not given)
42 | < 100 nM | NS(=O)(=O)c1ccc(Cc2c(-c3ccc(F)c(C#CC4CC4)c3)nn(-c3nc(C(=O)O)cs3)c2CC2CC2)cc1

Row | IC50 | Compound
43 | < 100 nM | C/C=C(\C)c1cc(-c2nn(-c3nc(C(=O)O)cs3)c(CC3CC3)c2Cc2ccc(S(N)(=O)=O)c(F)c2)ccc1F
44 | in the range around 550 nM | NS(=O)(=O)c1cccc(Cc2c(-c3ccc(F)c(C#CC4CCCC4)c3)nn(-c3nc(C(=O)O)cs3)c2CC2CC2)c1
45 | < 100 nM | NS(=O)(=O)c1ccc(Cc2c(-c3ccc(F)c(C#CC4=CCCC4)c3)nn(-c3nc(C(=O)O)cs3)c2CC2CC2)cc1F
46 | < 100 nM | CS(=O)(=O)c1ccc(Cc2c(-c3ccc(F)c(C#CCC4CCCO4)c3)nn(-c3nc(C(=O)O)cs3)c2CC2CC2)cc1F (stereo not given)
47 | < 100 nM | NS(=O)(=O)c1ccc(Cc2c(-c3ccc(F)c(C4CC4)c3)nn(-c3nc(C(=O)O)cs3)c2CC2CC2)cc1Cl
48 | < 100 nM | NS(=O)(=O)c1ccc(Cc2c(-c3ccc(F)c(C4=CCCC4)c3)nn(-c3nc(C(=O)O)cs3)c2CC2CC2)cc1F
49 | < 100 nM | NS(=O)(=O)c1ccc(Cc2c(-c3ccc(F)c(C#CC4(F)CCCC4)c3)nn(-c3nc(C(=O)O)cs3)c2CC2CC2)cc1F
50 | < 100 nM | NS(=O)(=O)c1ccc(Cc2c(-c3ccc(F)c(C#CC4(O)COC4)c3)nn(-c3nc(C(=O)O)cs3)c2CC2CC2)cc1F
51 | < 100 nM | NS(=O)(=O)c1ccc(Cc2c(-c3ccc(F)c(C#CC4CCCC4)c3)nn(-c3nc(C(=O)O)cs3)c2CC2CC2)cc1
52 | in the range around 29000 nM | CCOC(=O)c1csc(-n2nc(-c3ccc(F)c(C#CC4CCCC4)c3)c(Cc3ccc(S(N)(=O)=O)c(F)c3)c2C2CC2)n1
53 | < 100 nM | NS(=O)(=O)c1ccc(Cc2c(-c3ccc(F)c(C(F)(F)F)c3)nn(-c3nc(C(=O)O)cs3)c2CC2CC2)cc1F
54 | < 100 nM | C=C(C)c1cc(-c2nn(-c3nc(C(=O)O)cs3)c(CC3CC3)c2Cc2ccc(S(N)(=O)=O)c(F)c2)ccc1F
55 | < 100 nM | Cc1ccc(-c2cc(-c3nn(-c4nc(C(=O)O)cs4)c(CC4CC4)c3Cc3ccc(S(N)(=O)=O)c(Cl)c3)ccc2F)s1
56 | < 100 nM | NS(=O)(=O)c1ccc(Cc2c(-c3ccc(F)c(C#CC4CCCC4)c3)nn(-c3nc(C(=O)O)cs3)c2C2CC2)cc1F
57 | > 57000 nM | Cc1oc(=O)oc1COC(=O)c1csc(-n2nc(-c3ccc(F)c(C#CC4CCCC4)c3)c(Cc3ccc(S(N)(=O)=O)c(F)c3)c2CC2CC2)n1
58 | in the range around 29000 nM | CCOC(=O)c1csc(-n2nc(-c3ccc(F)c(C#CC4CC4)c3)c(Cc3ccc(S(N)(=O)=O)cc3)c2CC2CC2)n1
59 | in the range around 29000 nM | CC#Cc1cc(-c2nn(-c3nc(C(=O)OCC)cs3)c(CC3CC3)c2Cc2ccc(S(N)(=O)=O)c(F)c2)ccc1F
60 | < 100 nM | NS(=O)(=O)c1ccc(Cc2c(-c3ccc(F)c(C#CC4(F)CCOC4)c3)nn(-c3nc(C(=O)O)cs3)c2CC2CC2)cc1F (stereo not given)
61 | < 100 nM | NS(=O)(=O)c1ccc(Cc2c(-c3ccc(F)c(C#CC4(O)CCCC4)c3)nn(-c3nc(C(=O)O)cs3)c2CC2CC2)cc1F
62 | < 100 nM | CC1(C#Cc2cc(-c3nn(-c4nc(C(=O)O)cs4)c(CC4CC4)c3Cc3ccc(S(N)(=O)=O)c(F)c3)ccc2F)COC1
63 | < 100 nM | CC#Cc1cc(-c2nn(-c3nc(C(=O)O)cs3)c(CC3CC3)c2Cc2cccc(S(N)(=O)=O)c2)ccc1F

Row | Compound | IC50
64 | O=C(O)c1csc(-n2nc(-c3ccc(Cl)cc3)cc2C(F)(F)F)n1 | in the range around 29000 nM
65 | CC(C)=Cc1cc(-c2nn(-c3nc(C(=O)O)cs3)c(CC3CC3)c2Cc2ccc([SH+](N)[O-])c(F)c2)ccc1F (stereo not given) | < 100 nM
